Active and inactive are the calls of the source.
Legend:
[1] = molecular target: Mu-type opioid receptor (Homo sapiens, UniProt P35372); type: functional, cell-based;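 further: U2OS cells with beta-arrestin recruitment to OPRM1 by beta-gal complementation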
[2] = molecular target: 5-hydroxytryptamine receptor 2A (Mus musculus, UniProt P35363); type: functional, cell-based;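 further: CHO-K1 cells with tagged receptor and beta-arrestin; agonist potency measured as compound-induced activation of the receptor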
[3] = molecular target: Genome polyprotein (dengue virus type 2, UniProt P29990); test: Dengue-2 NS5 methyltransferase inhibitors, primary screen, biochemical, confirmation dose response (AID 588689); type: functional
[4] = molecular target: T1, Corticotropin-releasing factor receptor 2/Corticotropin-releasing factor-binding protein (Homo sapiens, UniProt P24387+Q13324); test: Dose Response confirmation of uHTS hits for small molecule antagonists of the CRF-binding protein and CRF-R2 receptor complex.; type: functional; details: read-out: IC50_Mean
T1 sequence (Q13324 whole entry): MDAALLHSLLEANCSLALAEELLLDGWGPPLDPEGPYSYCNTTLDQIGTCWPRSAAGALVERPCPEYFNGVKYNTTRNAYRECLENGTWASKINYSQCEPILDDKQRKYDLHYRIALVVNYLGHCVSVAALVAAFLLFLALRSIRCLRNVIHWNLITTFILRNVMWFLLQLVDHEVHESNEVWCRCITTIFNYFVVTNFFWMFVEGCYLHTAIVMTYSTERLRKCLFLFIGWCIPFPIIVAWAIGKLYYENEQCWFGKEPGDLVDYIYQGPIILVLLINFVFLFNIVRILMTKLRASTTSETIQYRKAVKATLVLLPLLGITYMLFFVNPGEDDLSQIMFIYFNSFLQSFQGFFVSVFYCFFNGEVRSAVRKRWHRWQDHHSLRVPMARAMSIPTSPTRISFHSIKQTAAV
T1 sequence (P24387 whole entry): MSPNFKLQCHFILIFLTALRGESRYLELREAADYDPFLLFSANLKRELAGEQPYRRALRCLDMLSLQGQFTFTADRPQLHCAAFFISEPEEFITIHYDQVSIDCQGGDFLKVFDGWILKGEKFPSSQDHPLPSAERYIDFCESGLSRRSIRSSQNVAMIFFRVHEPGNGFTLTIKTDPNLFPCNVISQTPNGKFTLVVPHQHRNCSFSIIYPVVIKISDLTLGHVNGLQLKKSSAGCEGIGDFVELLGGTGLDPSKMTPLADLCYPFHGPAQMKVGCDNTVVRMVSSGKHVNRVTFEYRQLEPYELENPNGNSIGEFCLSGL

[5] = molecular target: T1, Corticotropin-releasing factor receptor 2/Corticotropin-releasing factor-binding protein; test: activators of CRF receptor 2 with binding protein – uHTS hits, confirmation (AID 602473); type: functional; details: read-out: EC50_Mean
[6] = molecular target: T2, Small ubiquitin-related modifier 2 (Homo sapiens, UniProt P61956); test: SUMO2–SIM peptide binding inhibitors, dose response, selectivity assay for SUMO1 interaction inhibitor project, biochemical, fluorescence polarization, uHTS hits (AID 624385); type: functional; details: read-out: IC50_Mean
[7] = molecular target: T3, Small ubiquitin-related modifier 1 (Homo sapiens, UniProt P63165); test: inhibitors of SUMO1 peptide binding, dose response, biochemical, fluorescence polarization, uHTS hits (AID 624382); type: functional; details: read-out: IC50_Mean
[8] = molecular target: T2, Small ubiquitin-related modifier 2; test: inhibitors of SUMO2 protein-protein interaction, dose response, selectivity assay for SUMO1 interaction inhibitor project, biochemical, FRET, human SUMO2, uHTS hits (AID 624384); type: functional; details: read-out: IC50_Mean
[9] = molecular target: T3, Small ubiquitin-related modifier 1; test: inhibitors of SUMO1 partner interactions, dose response, biochemical, FRET (AID 624383); type: functional; details: read-out: IC50_Mean
[10] = molecular target: Beta-lactamase (Salmonella choleraesuis (strain SC-B67), UniProt Q5J463); test: Epi-absorbance-based counterscreen for selective VIM-2 inhibitors: dose response biochemical high throughput screening assay to identify inhibitors of TEM-1 serine-beta-lactamase.
[11] = molecular target: T4, Beta-lactamase (Pseudomonas aeruginosa, UniProt Q79MP6); test: IMP-1 metallo-beta-lactamase inhibitors, dose response, selectivity assay for VIM-2 inhibitor project, biochemical, epi-absorbance (AID 1920)
[12] = molecular target: T5, Beta Lactamase (Pseudomonas aeruginosa, UniProt Q932Y6); test: VIM-2 metallo-beta-lactamase inhibitor potency, dose response, biochemical, epi-absorbance readout, selective inhibitors (AID 1919)
[13] = molecular target: T4, Beta-lactamase; test: […] counterscreen for selective VIM-2 inhibitors: dose response biochemical high throughput screening assay to identify inhibitors of IMP-1 metallo-beta-lactamase.
[14] = molecular target: T5, Beta Lactamase; test: VIM-2 inhibitor FRET-based artefact check, dose response, artefact control for selective VIM-2 inhibitor project, biochemical, FRET readout, CCF2 substrate (AID 1926)
[15] = Luminescence Cell-Based Dose Confirmation HTS to Identify Activators of 5'UTR Stem-Loop Driven Alpha-Synuclein mRNA Translation in H4 Neuroglioblastoma Cells. [Related pubchem assays: 1829 (Project Summary), 1814 (Primary HTS)]; type: functional
[16] = Luminescence Cell-Based Dose Response HTS to Identify Activators of Luciferase Translation or Activity in H4 […] Cells. [Related pubchem assays: 1829 (Project Summary), 1814 (Primary HTS)]; type: functional
[17] = test system: H4; test: Luminescence Cell-Based Dose Response HTS to Identify Activators of 5'UTR Stem-Loop Driven Prion Protein mRNA Translation in H4 Neuroglioblastoma Cells. [Related pubchem assays: 1829 (Project Summary), 1814 (Primary HTS)]; type: functional; details: Homo sapiens
[18] = molecular target: Prothrombin (Homo sapiens, UniProt P00734); test: Thrombin 1536 HTS Dose Response Confirmation. [Related pubchem assays: 1046 (Thrombin 1536 HTS; hits were confirmed in this assay)]; type: functional
[19] = molecular target: SWI/SNF-related matrix-associated actin-dependent regulator of chromatin subfamily A member 2 (Homo sapiens, UniProt P51531); test: Luminescence-based cell-based high throughput dose response assay to identify activators of the function of SWI/SNF related, matrix associated, actin dependent regulator of chromatin, subfamily a, member 2 (SMARCA2, BRM).; type: functional
[20] = Counterscreen for activators of the function of SWI/SNF related, matrix associated, actin dependent regulator of chromatin, subfamily a, member 2 (SMARCA2, BRM): Luminescence-based cell-based high throughput dose response assay to identify non-selective compounds using the VP16 reporter assay.; type: functional
[21] = AlphaScreen signal interference compounds, dose response, artefact control for ARNT-TACC3 interaction inhibitor project, biochemical, luminescence, cherry-pick (AID 651705); type: functional;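 further: AlphaScreen bead proximity signal that flags compounds interfering with the detection technology; potency reflects signal decrease which marks the compound as an assay artifact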
[22] = test system: Streptococcus sp. 'group A'; test: growth inhibition of control SK(-) GAS strain, dose response, counter-screen for streptokinase expression inhibitor project, luminescence, kanamycin, BacTiterGlo, confirmation (AID 1900); type: functional, organism-based
[23] = molecular target: T6, Streptokinase A (Streptococcus pyogenes serotype M1, UniProt P10520); test: S. pyogenes streptokinase expression inhibitors, potency, dose response, plasminogen activation absorbance, OD405 (AID 1914); type: functional, Streptococcus pyogenes M1 GAS;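 further: secreted streptokinase activity via plasminogen activation per viability signal from cell pellet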
T6 sequence (P10520 whole entry): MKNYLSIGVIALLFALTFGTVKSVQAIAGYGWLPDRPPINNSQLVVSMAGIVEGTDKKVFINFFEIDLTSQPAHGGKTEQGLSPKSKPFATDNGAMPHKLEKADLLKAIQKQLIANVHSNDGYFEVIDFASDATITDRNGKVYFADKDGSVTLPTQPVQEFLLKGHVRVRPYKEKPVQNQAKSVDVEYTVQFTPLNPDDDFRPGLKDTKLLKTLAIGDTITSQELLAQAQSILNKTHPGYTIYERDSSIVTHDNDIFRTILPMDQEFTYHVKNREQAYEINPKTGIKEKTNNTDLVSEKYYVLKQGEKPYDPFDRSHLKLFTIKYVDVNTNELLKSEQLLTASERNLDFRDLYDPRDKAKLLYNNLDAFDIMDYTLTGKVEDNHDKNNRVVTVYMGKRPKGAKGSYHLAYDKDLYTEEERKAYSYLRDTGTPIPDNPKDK

[24] = test system: Streptococcus; test: Group A Streptococcus viability loss, dose response, counter-screen for streptokinase expression inhibitor project, luminescence, BacTiterGlo (AID 1915); type: functional, organism-based;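 further: potency for reduction of bacterial viability or growth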
[25] = HEK293T cell cytotoxicity, dose response, cytotoxicity control for HIV Vif inhibitor project, cherry-picks (AID 652208); type: functional, cell-based

T5 sequence (Q932Y6 whole entry): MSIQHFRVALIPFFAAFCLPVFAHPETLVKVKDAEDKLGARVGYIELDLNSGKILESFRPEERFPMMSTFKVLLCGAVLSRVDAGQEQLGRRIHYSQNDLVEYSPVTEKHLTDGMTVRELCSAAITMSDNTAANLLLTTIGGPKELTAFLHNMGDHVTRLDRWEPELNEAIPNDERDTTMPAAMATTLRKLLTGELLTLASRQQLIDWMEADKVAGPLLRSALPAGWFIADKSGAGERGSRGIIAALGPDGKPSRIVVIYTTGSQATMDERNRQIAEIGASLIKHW
T4 sequence (Q79MP6 whole entry): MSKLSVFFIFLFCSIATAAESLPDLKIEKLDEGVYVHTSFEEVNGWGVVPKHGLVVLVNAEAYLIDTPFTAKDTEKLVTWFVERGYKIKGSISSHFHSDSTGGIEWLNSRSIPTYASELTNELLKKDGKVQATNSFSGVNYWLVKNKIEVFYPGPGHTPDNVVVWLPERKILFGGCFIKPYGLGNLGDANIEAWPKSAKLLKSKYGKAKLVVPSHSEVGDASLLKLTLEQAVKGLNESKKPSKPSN
T2 sequence (P61956 whole entry): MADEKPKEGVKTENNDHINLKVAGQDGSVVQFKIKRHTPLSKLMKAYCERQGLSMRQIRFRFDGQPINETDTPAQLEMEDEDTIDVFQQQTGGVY
T3 sequence (P63165 whole entry): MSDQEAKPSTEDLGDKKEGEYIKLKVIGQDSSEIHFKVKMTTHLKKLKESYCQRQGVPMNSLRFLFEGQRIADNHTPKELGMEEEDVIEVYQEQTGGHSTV
Chain of 5-hydroxytryptamine receptor 2A (P35363 whole entry): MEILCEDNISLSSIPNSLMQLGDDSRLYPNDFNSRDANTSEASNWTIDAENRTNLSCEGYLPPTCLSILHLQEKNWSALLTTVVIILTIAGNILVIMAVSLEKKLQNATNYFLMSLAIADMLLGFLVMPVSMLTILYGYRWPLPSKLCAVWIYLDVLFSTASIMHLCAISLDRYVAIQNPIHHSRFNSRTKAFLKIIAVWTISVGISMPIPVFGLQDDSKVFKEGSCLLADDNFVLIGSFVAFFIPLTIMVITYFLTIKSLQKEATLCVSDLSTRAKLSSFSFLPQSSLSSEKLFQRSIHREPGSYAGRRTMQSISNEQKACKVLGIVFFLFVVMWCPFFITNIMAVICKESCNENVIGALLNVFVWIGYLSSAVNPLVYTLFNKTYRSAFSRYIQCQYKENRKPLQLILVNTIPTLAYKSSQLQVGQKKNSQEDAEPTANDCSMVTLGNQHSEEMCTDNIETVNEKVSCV
Chain of SWI/SNF-related matrix-associated actin-dependent regulator of chromatin subfamily A member 2 (P51531 whole entry): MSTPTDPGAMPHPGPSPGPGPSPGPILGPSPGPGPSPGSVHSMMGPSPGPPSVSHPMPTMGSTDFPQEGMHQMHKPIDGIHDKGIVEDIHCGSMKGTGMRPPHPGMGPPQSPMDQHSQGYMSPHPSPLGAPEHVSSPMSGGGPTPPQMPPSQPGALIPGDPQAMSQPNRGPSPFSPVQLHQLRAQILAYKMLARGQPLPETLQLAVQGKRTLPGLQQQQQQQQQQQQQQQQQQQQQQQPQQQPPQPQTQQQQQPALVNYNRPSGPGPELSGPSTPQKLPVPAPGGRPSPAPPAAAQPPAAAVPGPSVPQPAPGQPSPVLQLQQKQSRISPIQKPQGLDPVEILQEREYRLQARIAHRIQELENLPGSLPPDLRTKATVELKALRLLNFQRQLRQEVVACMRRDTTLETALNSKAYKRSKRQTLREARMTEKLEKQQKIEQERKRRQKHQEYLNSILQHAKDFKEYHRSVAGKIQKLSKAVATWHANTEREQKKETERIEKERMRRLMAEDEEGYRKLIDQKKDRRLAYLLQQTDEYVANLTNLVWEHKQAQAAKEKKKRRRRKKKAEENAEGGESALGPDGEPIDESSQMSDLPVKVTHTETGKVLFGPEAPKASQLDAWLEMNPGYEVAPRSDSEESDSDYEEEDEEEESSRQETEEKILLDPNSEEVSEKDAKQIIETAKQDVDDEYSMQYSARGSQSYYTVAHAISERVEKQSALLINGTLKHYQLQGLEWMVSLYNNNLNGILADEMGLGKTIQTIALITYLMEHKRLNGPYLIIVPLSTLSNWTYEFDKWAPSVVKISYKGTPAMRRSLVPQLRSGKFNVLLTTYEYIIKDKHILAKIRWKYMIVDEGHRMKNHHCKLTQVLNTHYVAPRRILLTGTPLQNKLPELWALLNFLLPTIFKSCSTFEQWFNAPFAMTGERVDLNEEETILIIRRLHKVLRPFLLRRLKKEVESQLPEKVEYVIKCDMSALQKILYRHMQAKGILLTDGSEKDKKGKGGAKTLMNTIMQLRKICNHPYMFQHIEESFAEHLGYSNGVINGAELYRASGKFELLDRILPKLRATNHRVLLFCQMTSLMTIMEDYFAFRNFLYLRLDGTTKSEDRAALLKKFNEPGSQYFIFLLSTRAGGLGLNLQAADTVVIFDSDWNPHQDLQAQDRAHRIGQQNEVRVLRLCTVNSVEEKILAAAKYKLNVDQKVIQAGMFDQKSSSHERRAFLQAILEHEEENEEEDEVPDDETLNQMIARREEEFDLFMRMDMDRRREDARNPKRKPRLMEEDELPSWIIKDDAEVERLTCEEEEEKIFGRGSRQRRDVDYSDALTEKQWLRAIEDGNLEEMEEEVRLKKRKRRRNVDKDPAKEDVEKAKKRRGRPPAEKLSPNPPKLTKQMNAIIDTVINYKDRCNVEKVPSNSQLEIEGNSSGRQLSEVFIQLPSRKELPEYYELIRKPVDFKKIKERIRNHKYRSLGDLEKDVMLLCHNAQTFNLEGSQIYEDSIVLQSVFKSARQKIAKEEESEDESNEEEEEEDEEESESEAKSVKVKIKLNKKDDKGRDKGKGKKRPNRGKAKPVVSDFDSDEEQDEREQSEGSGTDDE
Chain of Genome polyprotein (P29990 2492-3391 limits assumed): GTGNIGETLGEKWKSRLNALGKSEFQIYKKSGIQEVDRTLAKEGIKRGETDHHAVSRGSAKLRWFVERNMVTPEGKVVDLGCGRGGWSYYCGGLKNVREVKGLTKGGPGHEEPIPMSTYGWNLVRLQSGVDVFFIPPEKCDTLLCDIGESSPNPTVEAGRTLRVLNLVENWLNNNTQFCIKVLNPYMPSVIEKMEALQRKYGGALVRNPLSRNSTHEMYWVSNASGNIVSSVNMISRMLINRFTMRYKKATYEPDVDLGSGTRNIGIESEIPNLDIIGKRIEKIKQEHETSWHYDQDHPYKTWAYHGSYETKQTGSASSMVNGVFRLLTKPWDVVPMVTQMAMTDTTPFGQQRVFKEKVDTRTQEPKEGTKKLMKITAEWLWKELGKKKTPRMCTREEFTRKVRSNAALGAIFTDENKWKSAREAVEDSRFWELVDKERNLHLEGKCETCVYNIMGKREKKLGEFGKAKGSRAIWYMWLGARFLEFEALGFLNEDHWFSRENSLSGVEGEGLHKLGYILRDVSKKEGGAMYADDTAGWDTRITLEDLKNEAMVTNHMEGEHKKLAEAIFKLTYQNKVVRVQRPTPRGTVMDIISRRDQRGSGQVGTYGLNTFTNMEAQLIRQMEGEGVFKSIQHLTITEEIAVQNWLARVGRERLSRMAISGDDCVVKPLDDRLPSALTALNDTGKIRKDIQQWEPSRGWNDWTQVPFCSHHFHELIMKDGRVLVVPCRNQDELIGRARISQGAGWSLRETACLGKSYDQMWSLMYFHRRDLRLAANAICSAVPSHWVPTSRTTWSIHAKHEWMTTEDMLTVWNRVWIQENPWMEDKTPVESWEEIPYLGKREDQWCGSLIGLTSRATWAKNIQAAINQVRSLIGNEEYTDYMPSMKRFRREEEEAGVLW
Chain of Beta-lactamase (Salmonella choleraesuis (strain SC-B67), UniProt Q5J463) (Q5J463 whole entry): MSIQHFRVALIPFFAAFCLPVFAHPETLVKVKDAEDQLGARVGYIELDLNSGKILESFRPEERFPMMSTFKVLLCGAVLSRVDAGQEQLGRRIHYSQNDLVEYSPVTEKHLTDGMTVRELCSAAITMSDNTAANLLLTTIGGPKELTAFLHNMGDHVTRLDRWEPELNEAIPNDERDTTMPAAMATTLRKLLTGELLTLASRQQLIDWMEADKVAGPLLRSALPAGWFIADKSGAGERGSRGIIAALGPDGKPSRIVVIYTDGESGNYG
Chain of Mu-type opioid receptor (P35372 whole entry): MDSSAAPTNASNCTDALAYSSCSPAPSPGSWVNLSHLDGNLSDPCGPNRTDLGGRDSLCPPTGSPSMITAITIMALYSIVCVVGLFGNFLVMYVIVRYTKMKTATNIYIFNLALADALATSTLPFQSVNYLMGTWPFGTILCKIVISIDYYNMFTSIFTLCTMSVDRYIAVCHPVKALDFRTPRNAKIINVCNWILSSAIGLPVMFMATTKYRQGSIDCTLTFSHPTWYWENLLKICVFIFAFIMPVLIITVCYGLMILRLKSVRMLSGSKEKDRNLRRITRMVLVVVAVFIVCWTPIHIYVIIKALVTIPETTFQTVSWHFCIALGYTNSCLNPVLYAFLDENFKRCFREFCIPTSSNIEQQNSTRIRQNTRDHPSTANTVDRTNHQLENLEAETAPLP

## Clc1ccccc1CN1CCN(c2ncccn2)CC1
[1]
  EC50: 92.5 µM (inactive)
[2]
  EC50: 0.407 µM (active)

## O=C(Nc1cc(C(=O)Nc2ccccc2C(=O)O)cc(C(=O)Nc2ccccc2C(=O)O)c1)c1ccccc1
[3]
  IC50: 12.7 µM (active)
[4]
  IC50: > 47.1 µM (inactive)
[5]
  EC50: > 53 µM (inactive)
[6]
  IC50: 4.03 µM (active)
[7]
  IC50: 1.19 µM (active)
[8]
  IC50: 10.7 µM (active)
[9]
  IC50: 7.45 µM (active)

## COc1ccc(OC)c(C2C(C(=O)c3ccco3)=C(O)C(=O)N2Cc2cccnc2)c1 (stereo not drawn)
[10]
  IC50: > 59.6 µM (inactive)
[11]
  IC50: > 59.6 µM (inactive)
[12]
  IC50: 1.94 µM (active)
[13]
  IC50: > 59.6 µM (inactive)
[14]
  IC50: 0.7 µM (active)

## OCCCCCN=c1cc(-c2ccccc2)oc2ccc(Cl)cc12
[15]
  EC50: 14.4 µM (active)
[16]
  EC50: 8.23 µM (active)
[17]
  EC50: 15.2 µM (active)
[18]
  IC50: 3.04 µM (active)
[19]
  EC50: > 10.1 µM (inactive)
[20]
  EC50: > 10.1 µM (inactive)

## COc1ccc(CCNC(=O)C23CCC(C)(C(=O)C2Br)C3(C)C)cc1OC (stereo not drawn)
[21]
  AC50: 129 µM (active)

## O=C1Nc2ccccc2S/C1=C/Nc1cccc(Cl)c1
[15]
  EC50: > 120 µM (not active)
[16]
  EC50: 32.5 µM (active)
[22]
  EC50: 17.9 µM (active)
[17]
  EC50: > 120 µM (not active)
[23]
  EC50: > 150 µM (not active)
[24]
  EC50: 6.87 µM (active)
[25]
  AC50: > 52 µM (inactive)
